From patent publication US8138158B2, “Compositions and methods for therapy for diseases characterized by defective chloride transport” (Children's Hospital & Research Center at Oakland, priority 1997, dated 2012) come the findings set out here.

The target of test [1] is T1, ΔF508 CFTR (Mus musculus, UniProt P26361, DEL508-508).
T1 construct: from tissue; host or cells: rectal mucosa of living ΔF508 CF mice (C57Bl6/J), TMAO-treated or water-injected
As to the kind of experiment: Rectal potential difference (RPD) in mice homozygous for ΔF508 CFTR. In kind it is in vivo. The text has this: CF mice and rectal potential difference (RPD) measurements. Gene-targeted mice homozygous for the ΔF508 mutation (C57Bl6/J) received Golytely® (Braintree Laboratories, Inc.), a diarrhetic supplement, in the drinking water to increase their lifespan (Clarke, L. L., Gawenis, L. R., Franklin, C. L. & Harline, M. C. (1996) Lab. Anim. Sci. 46, 612-8). To correct the maturation defect of ΔF508 CFTR we used the chemical chaperone trimethylamine oxide (TMAO) (Brown, C. R., Hong-Brown, L. Q., Biwersi, J., Verkman, A. S. & Welch, W. J. (1996) Cell Stress Chaperones 1, 117-25). CF mice were injected with 4 mg/g TMAO from a 4 M stock solution every 8 hours for 24 hours, which is a regimen to partially correct the ΔF508 defect in CF mice (Fischer, H., Barbry, P., Illek, B., Sartori, C., Fukuda, N. & Matthay, M. A. (2001) Am. J. Physiol. 281, L52-L57). Controls were water-injected. The RPD assay was performed on mice that were anesthetized with 0.1 mg/g body weight ketamine and 0.01 mg/g body weight azepromazine. RPD was sensed with a 1 M NaCl agar bridge inserted ˜1 cm into the rectum vs. a subcutaneous needle filled with 1 M NaCl. Measurements were performed in Cl free solution containing 100 μm amiloride and 5 mM Ba(OH)2 to isolate the Cl-selective RPD.
In this Example, it was determined whether L-ascorbic acid affected the functional activation of ΔF508 CFTR in a CF-affected organism in vivo. Using gene-targeted mice homozygous for the ΔF508 mutation it was shown previously that the osmolyte trimethylamine oxide (TMAO) effectively supported ΔF508 CFTR trafficking in vivo (Fischer, H., Barbry, P., Illek, B., Sartori, C., Fukuda, N. & Matthay, M. A. (2001) Am. J. Physiol. 281, L52-L57). Accordingly, the effect of L-ascorbic acid was tested in homozygous ΔF508 CF mice treated with TMAO by using the RPD assay as a functional end point measure for mutant ΔF508-CFTR function. FIG. 24A illustrates that TMAO-treated CF mice manifested a detectable response to a maximal dose of L-ascorbic acid (1 mM) or its epimer D-isoascorbic acid (300 μM) and RPD hyperpolarized on average by −3.2±0.8 mV (n=4) and −3.6±1.8 mV (n=3), respectively (FIG. 24B).

Test [2] relates to wildtype CFTR-corrected CF15 monolayers. Description: Short-circuit current across wildtype CFTR-corrected CF15 monolayers. Type of test: cell-based, human. The protocol:
(§1) Human airway cell culture. The human submucosal serous gland-like cell line Calu-3, the CF nasal epithelial cell line homozygous for ΔF508 CFTR (CF15) and human tracheal primary cultures (hTE) were cultured as described (Jefferson, D. M., Valentich, J. D., Marini, F. C., Grubman, S. A., Iannuzzi, M. C., Dorkin, H. L., Li, M., Klinger, K. W. & Welsh, M. J. (1990) Am. J. Physiol. 259, L496-L505. Sachs, L. A., Finkbeiner, W. E. & Widdicombe, J. H. (2003) In Vitro Cell Dev. Biol. Anim. 39, 56-62.). Wildtype CFTR-corrected CF15 cells were generated via adenovirus-mediated gene transfer. Growth media were nominally free of ascorbic acid (<10 μm, University Pathology Inc., Salt Lake City, Utah). For transepithelial measurements cells were grown on permeable filter inserts and used after 3 to 10 days.
(§2) Short-circuit current measurement. Calu-3 or CF15 cells were grown as monolayers, mounted in Ussing chambers and short-circuit current (ISC) was recorded as described (Illek, B. & Fischer, H. (1998) Am. J. Physiol. 275, L902-L910). At 20-50 second intervals, transepithelial voltage was clamped from zero to 2 mV and the transepithelial resistance (Rte) was calculated. A serosa-to-mucosa-directed Cl gradient was applied. Serosal Ussing chamber solution contained (in mM): 120 NaCl, 20 NaHCO3, 5 KHCO3, 1.2 NaH2PO4, 5.6 glucose, 2.5 CaCl2, 1.2 MgCl2. In mucosal Ussing chamber solutions, all Cl salts were exchanged for gluconate salts.
(§3) The CF15 cell line was used to determine whether ascorbate-stimulated Cl currents were solely mediated by the CFTR Cl conductance. The CF15 cell line is characterized by the absence of functional CFTR in the apical plasma membrane but the presence of other non-CFTR Cl conductances (Jefferson, D. M., Valentich, J. D., Marini, F. C., Grubman, S. A., Iannuzzi, M. C., Dorkin, H. L., Li, M., Klinger, K. W. & Welsh, M. J. (1990) Am. J. Physiol. 259, L496-L505). A concentration of L-ascorbic acid that lay within the upper plateau of the dose response curve (500 μm) was applied and ascorbate-stimulated Cl currents in CF15 vs. wildtype CFTR-corrected CF15 monolayers was compared (FIG. 23A). […] The defective response to L-ascorbic acid was reversed in wildtype CFTR-corrected CF15 epithelia such that ISC responded promptly to L-ascorbic acid (ΔISC=7.5±0.5 μA/cm^2, n=6). The ascorbate-stimulated current was further activated by the cAMP agonist forskolin and total stimulated ISC averaged 12.1±1.1 μA/cm^2 (FIG. 4B). The ascorbate-stimulated Cl current reached 60±15% of the forskolin-stimulated current in CFTR-corrected CF15 monolayers, which was close to the corresponding findings in Calu-3 monolayers (68%, see FIG. 21A). The absence of ascorbate-stimulated Cl currents in CF15 monolayers supports the notion that non-CFTR Cl conductances were not activated by L-ascorbic acid.
In this example, chloride currents stimulated by L-ascorbate or D-ascorbate were measured in CF15 versus. wildtype CFTR-corrected CF15 monolayers. A concentration of L-ascorbate (1 mM) or D-isoascorbate (300 μm) that lay within the upper plateau of the dose-response curve was applied to cells and the resulting chloride currents stimulated in CF15 versus wildtype CFTR-corrected CF15 monolayers were measured (FIG. 25 A-H). All experiments were performed in the presence of the sodium channel blocker amiloride. […]

For test [3], the system named is CF15 monolayers homozygous for ΔF508 CFTR. As to the kind of experiment: Short-circuit current across CF15 monolayers homozygous for ΔF508 CFTR. In kind it is cell-based, human. Particulars: D-isoascorbate 300 μm. The protocol:
as §1, §2
as §3, with “The absence of ascorbate-stimulated Cl currents in CF15 monolayers supports the notion that non-CFTR Cl conductances were not activated by L-ascorbic acid.” left out
In this example, chloride currents stimulated by L-ascorbate or D-ascorbate were measured in CF15 versus. wildtype CFTR-corrected CF15 monolayers. A concentration of L-ascorbate (1 mM) or D-isoascorbate (300 μm) that lay within the upper plateau of the dose-response curve was applied to cells and the resulting chloride currents stimulated in CF15 versus wildtype CFTR-corrected CF15 monolayers were measured (FIG. 25 A-H). […]
The functional activation of ΔF508 CFTR was determined after correction of the underlying trafficking defect of ΔF508 CFTR using S-Nitrosoglutathione (Zaman, et al., Biochem Biophys Res Commun 284: 65-70, 2001; Snyder, et al., American Journal of Respiratory and Critical Care Medicine 165: 922-6, 2002; Andersson, et al. Biochemical and Biophysical Research Communication 297(3): 552-557, 2002.). […]

Test [4] has as its system Calu-3 airway epithelia. As to the kind of experiment: Short-circuit current (transepithelial Cl secretion) across Calu-3 airway epithelia, Examples 12-13. Type of test: cell-based, human. On the procedure:
as §2
Vitamin C activation of CFTR-mediated Cl secretion was studied in Calu-3 cells grown as epithelial monolayers (FIG. 21A). Exposure of the apical membrane to maximal concentrations of L-ascorbic acid stimulated transepithelial Cl currents (ISC) in a sustained fashion to 96±11 μA/cm^2 (n=22). Subsequent addition of forskolin further increased ISC to 141±33 μA/cm^2 (n=9, p=0.029). On average, Cl secretion was stimulated by ascorbate to 68% of the currents elicited by forskolin. The Cl channel blocker diphenylcarboxylate (DPC, 4 mM) was added as a measure for the transcellular Cl current decreasing ISC to 30±4 μA/cm^2. When Cl secretion was first stimulated with forskolin (to 106±23 μA/cm^2, n=4) ascorbate had no significant effect on Ise (at 100 μM: ΔICl=−1.5±3.5 μA/cm^2, n=4, not different from zero, one-sample t test). Half-maximal stimulatory constant averaged 36.5±2.9 μm as determined from transepithelial dose-response experiments.
Furthermore, the response to ascorbate in Na-containing medium was blunted in the presence of phloretin, a known inhibitor of the sodium-dependent vitamin C transporters SVCT1 and SVCT2 (Tsukaguchi, H., Tokui, T., Mackenzie, B., Berger, U. V., Chen, X. Z., Wang, Y., Brubaker, R. F. & Hediger, M. A. (1999) Nature 399, 70-75). […] Molecular expression of SVCT1 and SVCT2 transcripts in Calu-3 cells was verified using RT-PCR and DNA sequencing analysis. For comparison, human ciliated tracheal epithelial cultures (hTE) and a nasal cystic fibrosis airway cell line (CF15) were included. […] The recombinantly expressed SVCT2-EGFP fusion protein was targeted exclusively to the apical membrane pole of CF15 epithelia.

T1 sequence (P26361 with tags, fused parts or gaps DEL508-508): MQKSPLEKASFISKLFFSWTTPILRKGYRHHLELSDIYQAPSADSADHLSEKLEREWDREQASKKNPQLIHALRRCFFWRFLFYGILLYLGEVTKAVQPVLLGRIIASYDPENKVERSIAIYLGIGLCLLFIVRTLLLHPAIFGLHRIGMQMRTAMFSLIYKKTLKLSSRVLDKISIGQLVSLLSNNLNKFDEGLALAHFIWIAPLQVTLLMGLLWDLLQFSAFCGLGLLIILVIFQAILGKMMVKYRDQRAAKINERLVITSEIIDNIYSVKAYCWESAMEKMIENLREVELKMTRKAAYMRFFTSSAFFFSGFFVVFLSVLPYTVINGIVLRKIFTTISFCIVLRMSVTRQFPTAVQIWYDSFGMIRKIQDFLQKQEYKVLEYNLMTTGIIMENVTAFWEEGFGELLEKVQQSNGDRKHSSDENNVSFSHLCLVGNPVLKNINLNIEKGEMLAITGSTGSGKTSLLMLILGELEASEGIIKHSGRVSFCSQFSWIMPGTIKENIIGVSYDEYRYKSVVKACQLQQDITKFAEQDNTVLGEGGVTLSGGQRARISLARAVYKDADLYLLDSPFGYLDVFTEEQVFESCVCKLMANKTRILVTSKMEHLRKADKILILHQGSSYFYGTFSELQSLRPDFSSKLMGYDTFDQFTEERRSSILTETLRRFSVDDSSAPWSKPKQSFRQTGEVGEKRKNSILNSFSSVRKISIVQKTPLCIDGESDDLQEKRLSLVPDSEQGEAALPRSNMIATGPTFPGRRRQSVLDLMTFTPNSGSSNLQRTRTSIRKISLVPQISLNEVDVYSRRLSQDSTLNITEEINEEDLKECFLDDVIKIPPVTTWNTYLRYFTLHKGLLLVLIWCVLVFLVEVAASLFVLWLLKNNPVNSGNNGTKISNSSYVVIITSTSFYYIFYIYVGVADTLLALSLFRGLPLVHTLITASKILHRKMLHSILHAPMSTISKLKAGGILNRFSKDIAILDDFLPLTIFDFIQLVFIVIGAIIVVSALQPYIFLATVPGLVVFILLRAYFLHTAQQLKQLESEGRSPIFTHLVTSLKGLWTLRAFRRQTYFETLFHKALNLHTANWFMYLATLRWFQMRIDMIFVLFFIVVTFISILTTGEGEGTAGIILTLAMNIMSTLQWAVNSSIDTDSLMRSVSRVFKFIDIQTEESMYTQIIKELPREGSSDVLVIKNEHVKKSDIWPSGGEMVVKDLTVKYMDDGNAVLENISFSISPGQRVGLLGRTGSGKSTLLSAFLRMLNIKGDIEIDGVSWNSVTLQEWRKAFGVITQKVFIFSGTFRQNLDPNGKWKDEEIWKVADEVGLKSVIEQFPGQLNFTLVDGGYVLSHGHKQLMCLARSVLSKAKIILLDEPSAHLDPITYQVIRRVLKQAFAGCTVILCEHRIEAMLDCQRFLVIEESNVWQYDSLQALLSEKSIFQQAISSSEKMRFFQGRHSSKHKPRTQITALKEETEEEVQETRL

As for `O=C1O[C@H]([C@H](O)CO)C(O)=C1O` [D-isoascorbic acid], the “RPD hyperpolarized on average by” value in test [1] (CF mice treated with 4 mg/g TMAO for 24 hours, D-isoascorbic acid 300 μM, n=3) is on record as −3.6±1.8 mV. Also, the ΔRPD in test [1] (water-injected control CF mice, L-ascorbic acid or D-isoascorbic acid, n=9) was −1.1±0.4 mV. The ΔIsc worked out at 6.6±1.7 μA/cm^2 in test [2] (D-isoascorbate 300 μm, amiloride, n=2) and 0.7±1.0 μA/cm^2 in test [3] (untreated CF epithelia, amiloride, n=7). The “transepithelial chloride currents increased on average by” value in test [3] (CF15 treated with 1 mM SNOG for 5-24 hours, n=8) is on record as 3.1±0.5.

With `C[N+](C)(C)[O-]` [TMAO, trimethylamine oxide, reference compound], in test [1] (TMAO 4 mg/g every 8 hours for 24 hours), the “increase of ascorbate- and isoascorbate-stimulated RPD compared to untreated CF mice” value is on record as “approximately 3 fold”.

As to `C=C[C@@]1(C)CC(=O)[C@]2(O)[C@@]3(C)[C@@H](O)CCC(C)(C)[C@@H]3[C@H](O)[C@H](OC(C)=O)[C@@]2(C)O1` [forskolin, reference compound], the “Cl secretion first stimulated with forskolin to” value in test [4] (forskolin first, n=4) is recorded as 106±23 μA/cm^2. Further, the “ISC further increased to” value in test [4] (subsequent addition of forskolin after L-ascorbic acid, n=9) was 141±33 μA/cm^2. For the same compound, the “total stimulated ISC” value in test [2] (forskolin added on ascorbate-stimulated current) worked out at 12.1±1.1 μA/cm^2.

For `O=C(CCc1ccc(O)cc1)c1c(O)cc(O)cc1O` [phloretin, reference compound], the “response to ascorbate in presence of SVCT inhibitor” value in test [4] (Na-containing medium, pre-treatment with 200 μM phloretin) was “blunted”.
